Experimental data reported in patent publication US20200268827A1, “COMPOSITION FOR PREVENTION, IMPROVEMENT OR TREATMENT OF OSTEOARTHRITIS COMPRISING ALPINIA OXYPHYLLA EXTRACT AS EFFECTIVE COMPONENT” (KOREA INSTITUTE OF ORIENTAL MEDICINE, priority 2017, published 2020).

Tests used:
Assay type in all cases: in vivo, SD rat
[1] = tested on: MIA (monosodium iodoacetate)-induced osteoarthritis; assay: Bodyweight loading of hind limb in animal model of MIA-induced osteoarthritis (incapacitance tester); conditions: compared to MIA group; oral once a day for 21 days, measured every 7 days; FIG. 1
Description: To determine the effect of an extract of Alpinia oxyphylla, which has been prepared in the above Example 1, on bodyweight loading in an animal model of MIA-induced osteoarthritis, MIA as an osteoarthritis-inducing material (diluted to 60 mg/ml with 0.9% physiological saline) was administered in an amount of 50 μl to an articular cavity of a right hind limb of 7-week old SD rat to induce osteoarthritis. After that, the animal was orally administered with an extract of Alpinia oxyphylla (150 or 300 mg/kg) once a day for 21 days, while the percentage of bodyweight loading was measured every 7 days. As a positive control group, indomethacin (1 mg/kg) was used.
The bodyweight loading on hind limb was measured by using a paw weight tester (Incapacitance tester, Linton instrument Co., UK, Ser No. 01/45/25). In a tester holder, the rat with induced osteoarthritis tends to stand on a normal paw which has not been administered with MIA due to the pain occurring in the other paw, and thus balance between the weights of two paws was not maintained so that the weight of paw administered with MIA is measured to be relatively lighter than the weight of normal paw. […] Then, by using the weight of paw which has been measured accordingly, percentage of bodyweight loading (%) was calculated based on the following Formula 1. […]

[2] = tested on: MMP-9; assay: mRNA expression of cartilage degeneration-inducing factor in joint with induced osteoarthritis by PCR; conditions: compared to MIA-induced increase, FIG. 2
Description: (§1) From a joint with induced osteoarthritis, mRNA was extracted and the expression of an inflammatory factor (IL-1β, IL-6, TNF-α and COX-2) and a cartilage degeneration-inducing factor (MMP-9) was examined by PCR.

[3] = tested on: TNF-α; assay: mRNA expression of inflammatory factor in joint with induced osteoarthritis by PCR; conditions: compared to MIA-induced increase, FIG. 2
Description: as §1

[4] = tested on: IL-1β; assay: as above; conditions: compared to MIA-induced increase, FIG. 2
Description: as §1

[5] = tested on: IL-6; assay: as above; conditions: compared to MIA-induced increase, FIG. 2
Description: as §1

[6] = tested on: COX-2; assay: as above; conditions: compared to MIA-induced increase, FIG. 2
Description: as §1

## COc1ccc2c(c1)c(CC(=O)O)c(C)n2C(=O)c1ccc(Cl)cc1 [indomethacin]
[1]
  percentage of bodyweight loading (%) of hind limb: higher than the MIA-induced osteoarthritis group
[2]
  expression of MMP-9 (cartilage degeneration-inducing factor): decreased in significant sense
[3]
  expression of TNF-α (inflammatory factor): decreased in significant sense
[4]
  expression of IL-1β (inflammatory factor): decreased in significant sense
[5]
  expression of IL-6 (inflammatory factor): decreased in significant sense
[6]
  expression of COX-2 (inflammatory factor): decreased in significant sense
